Test results published in patent US7276511B2, “Benzylamine derivative” (Zeria Pharmaceutical Co., Ltd., priority 2003, dated 2007).
Counter-ions that a name gives are not always drawn. Like-named read-outs stand apart in the source and are kept apart here.

Columns and labels:
NK-1 receptor = NK-1 receptor (Homo sapiens, UniProt P25103); test: NK-1 receptor-binding test ([3H]-Substance P, hNK1-CHO cells); parameters: expressed in transfected cells; host or cells: CHO-K1 cells (ATCC: CCL-61), G418-resistant, hNK1-CHO
Method: 1. NK-1 Receptor-binding Test
1) Preparation of Human NK-1 Receptor Expression Cells
FuGene 6 transfection reagent (Boegringer Mannheim) (3 μL) was diluted in an F-12 culture broth (97 μL), and pCR3.1 plasmid to which human NK-1 receptor cDNA had been introduced (Invitrogen) (10 μL) was added thereto. The mixture was mixed and incubated for 15 minutes (transfection reagent). CHO-K1 cells (ATCC: CCL-61) were cultured for 24 hours, and the whole reagent prepared above was added to the cultured CHO-K1 cells ([…]). Subsequently, culture was performed in the presence of G418 (Stratagene), and the resistant cells were employed as cells into which human NK-1 receptor gene was introduced (hNK1-CHO).
2) Subcultivation of hNK1-CHO Cells
The hNK1-CHO cells were treated with trypsin-EDTA and subcultivated in an F-12 culture broth (containing 10% fetal bovine serum, 10 mM HEPES, 100 U/mL, penicillin, 100 μg/mL streptmycin, 400 μg/mL G418) in a 75-cm^2 flask (FALCON). Cells to be employed in the receptor-binding experiment were added to a 24-well plate (IWAKI) at 1×10^5 cells/well, and subcultured for 48 hours at 37° C. under 95% […] and 5% CO2.
3) Receptor-binding Experiment
When the hNK1-CHO cells became subconfluent on the 24-well plate, an F-12 culture broth (containing 10 mM HEPES and 0.1% fetal bovine serum) (450 μL), [^3H]-Substance P (Amersham, final concentration 0.5 nM), and a test compound were added to the cells, and the mixture was incubated for 40 minutes at 37° C. For the measurement of non-specific binding, L703606 (Sigma) was added instead of the test compound. After completion of incubation, the mixture was washed with ice-cooled phosphate buffered saline containing 0.1% fetal bovine serum, and the cells were lysed with 1N NaOH (0.5 mL). The lysate was transfered to a plastic vial containing UltimaGold MV (5 mL), and the radioactivity was determined by means of a liquid liquid scintillation counter (Packard, 2000CA).
(§1) Percent radioactive ligand-receptor binding inhibition of each test compound was calculated by use of the following equation, and IC50 (nM) was determined through pseudo-Hill analysis.
(§2) Percent inhibition (%)=[1−(C−A)/(B−A)]×100
(§3) A: Radioactivity attributed to non-specific binding
(§4) B: Radioactivity without test compound
(§5) C: Radioactivity with test compound

[1] = biological target: T1, Cloned Neurokinin Receptor Subtype 2 Human (Homo sapiens, UniProt P21452); test: NK-2 receptor-binding experiment ([3H]-SR48968, CHO cell membranes); details: Table 3; inhibition of [3H]-SR48968 (0.85 nM) binding, pseudo-Hill analysis
T1 construct: purchased Biosignal Packard; host or cells: CHO cells
T1 sequence (P21452 1-398): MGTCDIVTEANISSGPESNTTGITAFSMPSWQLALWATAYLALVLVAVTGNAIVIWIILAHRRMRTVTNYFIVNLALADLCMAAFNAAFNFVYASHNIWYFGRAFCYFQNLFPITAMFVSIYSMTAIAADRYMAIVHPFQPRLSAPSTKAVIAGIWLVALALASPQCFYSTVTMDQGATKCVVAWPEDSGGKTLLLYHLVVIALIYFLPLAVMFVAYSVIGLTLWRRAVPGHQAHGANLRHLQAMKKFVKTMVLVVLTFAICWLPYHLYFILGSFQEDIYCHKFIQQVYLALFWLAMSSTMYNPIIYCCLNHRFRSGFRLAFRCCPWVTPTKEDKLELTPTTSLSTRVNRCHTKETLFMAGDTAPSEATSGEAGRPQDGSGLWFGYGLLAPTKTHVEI
Method: 2. NK-2 Receptor-binding Experiment
Cloned Neurokinin Receptor Subtype 2 Human (CHO cells, Biosignal Packard), [^3H]-SR48968 (Amersham, final concentration 0.85 nM), and a test compound were mixed with 20 mM HEPES buffer, and the mixture was incubated for 50 minutes at 27° C. After completion of incubation, membrane components were collected by means of an automatic filtration apparatus (Brandel) onto a GF/C glass fiber filter (Whatman).
Before use, in order to prevent non-specific binding, the glass fiber filter had been pre-treated with 0.1% polyethylene imine solution for about 4 hours.
The filter employed to collect the membrane components was transferred to a plastic vial containing UltimaGold MV (5 mL), and measured by means of a liquid scintillation counter (Packard, 2000CA) in terms of the radioactivity.
as §1, §2, §3, §4, §5

[2] = Table 2, inhibition of [3H]-Substance P (0.5 nM) binding to hNK1-CHO cells, pseudo-Hill analysis, read-out: NK-1

NK-1 receptor, sequence (P25103 whole entry): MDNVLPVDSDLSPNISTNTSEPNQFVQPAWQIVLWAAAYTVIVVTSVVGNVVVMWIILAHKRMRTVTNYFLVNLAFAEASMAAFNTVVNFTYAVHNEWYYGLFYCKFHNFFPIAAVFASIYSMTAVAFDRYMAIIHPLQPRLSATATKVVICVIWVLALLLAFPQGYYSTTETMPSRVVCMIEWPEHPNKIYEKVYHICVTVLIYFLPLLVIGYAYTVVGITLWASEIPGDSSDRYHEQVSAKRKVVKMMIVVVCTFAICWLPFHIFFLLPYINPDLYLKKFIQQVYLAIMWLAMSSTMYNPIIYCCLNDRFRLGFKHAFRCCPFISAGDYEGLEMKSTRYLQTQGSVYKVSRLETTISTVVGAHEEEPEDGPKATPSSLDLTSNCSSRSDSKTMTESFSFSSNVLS

Row | IC50 (NK-1 receptor; [2]) | SMILES | IC50 (NK-1 receptor) | further results
1 | – | CN(C[C@](CCCN1CCC2(CC1)c1ccccc1C[S@+]2[O-])(c1ccc(Cl)c(Cl)c1)N(C)C(=O)Oc1ccc(Cl)c(Cl)c1)C(=O)CC(F)(F)F [Compound No. 654, 3,4-dichlorophenyl{1-(3,3,3-trifluoro-N-methylpropanamido)-2-(S)-(3,4-dichlorophenyl)-5-[spiro(benzo(c)thiophene-(2S)-oxido-1(3H),4′-piperidin)-1′-yl]pentan-2-yl}methylcarbamate hydrochloride] | 3 nM | –
2 | – | CN(C[C@](CCCN1CCC2(CC1)c1ccccc1C[S@+]2[O-])(c1ccc(Cl)c(Cl)c1)N(C)C(=O)Oc1ccc(Cl)cc1)C(=O)CC(F)(F)F [Compound No. 633, 4-chlorophenyl(1-(3,3,3-trifluoro-N-methylpropanamido)-2-(S)-(3,4-dichlorophenyl)-5-[spiro(benzo(c)thiophene-(2S)-oxido-1(3H),4′-piperidin)-1′-yl]pentan-2-yl}methylcarbamate hydrochloride] | 8.3 nM | –
3 | 2 nM | COc1cc(COC[C@](CCCN2CCC3(CC2)c2ccccc2C[S@+]3[O-])(c2ccc(Cl)c(Cl)c2)N(C)C(=O)Nc2cccc(C(F)(F)F)c2)cc(OC)c1OC [Compound No. 616, 1-{1-(3,4,5-trimethoxybenzyloxy)-2-(S)-(3,4-dichlorophenyl)-5-[spiro(benzo(c)thiophene-(2S)-oxido-1(3H),4′-piperidin)-1′-yl]pentan-2-yl}-3-[3-(trifluoromethyl)phenyl]-1-methylurea hydrochloride] | – | –
4 | 0.58 nM | COc1cc(COC[C@](CCCN2CCC3(CC2)c2ccccc2C[S@+]3[O-])(c2ccc(Cl)c(Cl)c2)N(C)C(=O)Nc2cccc(F)c2)cc(OC)c1OC [Compound No. 615, 1-{1-(3,4,5-trimethoxybenzyloxy)-2-(S)-(3,4-dichlorophenyl)-5-[spiro(benzo(c)thiophene-(2S)-oxido-1(3H),4′-piperidin)-1′-yl]pentan-2-yl}-3-(3-fluorophenyl)-1-methylurea hydrochloride] | – | –
5 | – | CN(C[C@](CCCN1CCC2(CC1)c1ccccc1C[S@+]2[O-])(c1ccc(Cl)c(Cl)c1)N(C)C(=O)Oc1ccccc1)C(=O)CC(F)(F)F [Compound No. 591, phenyl{1-(3,3,3-trifluoro-N-methylpropanamido)-2-(S)-(3,4-dichlorophenyl)-5-[spiro(benzo(c)thiophene-(2S)-oxido-1(3H),4′-piperidin)-1′-yl]pentan-2-yl}methylcarbamate hydrochloride] | 6.9 nM | –
6 | 0.54 nM | COc1cc(COC[C@](CCCN2CCC3(CC2)c2ccccc2C[S@+]3[O-])(c2ccc(Cl)c(Cl)c2)N(C)C(=O)NCc2ccccc2F)cc(OC)c1OC [Compound No. 617, 1-{1-(3,4,5-trimethoxybenzyloxy)-2-(S)-(3,4-dichlorophenyl)-5-[spiro(benzo(c)thiophene(2S)-oxido-1(3H),4′-piperidin)-1′-yl]pentan-2-yl}-3-(2-fluorobenzyl)-1-methylurea hydrochloride] | – | –
7 | – | CN(C[C@](CCCN1CCC(C(N)=O)(c2ccccc2)CC1)(c1ccc(Cl)c(Cl)c1)N(C)C(=O)Oc1ccccc1)C(=O)C(F)(F)F [Compound No. 578, phenyl[1-(2,2,2-trifluoro-N-methylacetamide)-2-(S)-(3,4-dichlorophenyl)-5-(4-carbamoyl-4-phenylpiperidine-1′-yl)pentan-2-yl]methylcarbamate hydrochloride] | 9.5 nM | –
8 | – | CN(C[C@](CCCN1CCC2(CC1)c1ccccc1C[S@+]2[O-])(c1ccc(Cl)c(Cl)c1)N(C)C(=O)Oc1ccc(F)cc1)C(=O)CC(F)(F)F [Compound No. 639, 4-fluorophenyl{1-(3,3,3-trifluoro-N-methylpropanamido)-2-(S)-(3,4-dichlorophenyl)-5-[spiro(benzo(c)thiophene-(2S)-oxido-1(3H),4′-piperidin)-1′-yl]pentan-2-yl}methylcarbamate hydrochloride] | 4 nM | –
9 | 1.2 nM | COc1cc(COC[C@](CCCN2CCC3(CC2)c2ccccc2C[S@+]3[O-])(c2ccc(Cl)c(Cl)c2)N(C)C(=O)NCc2cccc(F)c2)cc(OC)c1OC [Compound No. 618, 1-{1-(3,4,5-trimethoxybenzyloxy)-2-(S)-(3,4-dichlorophenyl)-5-[spiro(benzo(c)thiophene(2S)-oxido-1(3H),4′-piperidin)-1′-yl]pentan-2-yl}-3-(3-fluorobenzyl)-1-methylurea hydrochloride] | – | –
10 | – | COc1ccccc1OC(=O)N(C)[C@](CCCN1CCC2(CC1)c1ccccc1C[S@+]2[O-])(CN(C)C(=O)CC(F)(F)F)c1ccc(Cl)c(Cl)c1 [Compound No. 636, 2-methoxyphenyl{1-(3,3,3-trifluoro-N-methylpropanamido)-2-(S)-(3,4-dichlorophenyl)-5-[spiro(benzo(c)thiophene-(2S)-oxido-1(3H),4′-piperidin)-1′-yl]pentan-2-yl}methylcarbamate hydrochloride] | 0.9 nM | –
11 | – | CN(C[C@](CCN1CCC2(CC1)c1ccccc1C[S@+]2[O-])(c1ccc(Cl)c(Cl)c1)N(C)C(=O)c1ccccc1F)C(=O)CC(F)(F)F [Compound No. 30, N-{1-(3,3,3-trifluoro-N-methylpropanamido)-2-(S)-(3,4-dichlorophenyl)-4-[spiro(benzo(c)thiophene-(2S)-oxido-1(3H),4′-piperidin)-1′-yl]butan-2-yl}-N-methyl-2-fluorobenzamide hydrochloride] | – | IC50 [1]: 1.2 nM
12 | – | CN(C[C@](CCN1CCC2(CC1)NC(=O)Cc1ccccc12)(c1ccc(Cl)c(Cl)c1)N(C)C(=O)C(=O)N(C)c1ccccc1)C(=O)CC(F)(F)F [Compound No. 27, N^1-{1-(3,3,3-trifluoro-N-methylpropanamido)-2-(S)-(3,4-dichlorophenyl)-4-[3-oxo-3,4-dihydro-2H-spiro(isoquinoline-1,4′-piperidin)-1′-yl]butan-2-yl}-N^1,N^2-dimethyl-N^2-phenyloxalamide hydrochloride] | – | IC50 [1]: 6.7 nM
13 | – | CC(C)C(=O)N(C)C[C@](CCN1CCC2(CC1)c1ccccc1C[S@+]2[O-])(c1ccc(Cl)c(Cl)c1)N(C)C(=O)c1ccccc1 [Compound No. 32, N-{1-(N-methylisobutylamide)-2-(S)-(3,4-dichlorophenyl)-4-[spiro(benzo(c)thiophene-(2S)-oxido-1(3H),4′-piperidin)-1′-yl]butan-2-yl}-N-methylbenzamide hydrochloride] | – | IC50 [1]: 1 nM

Row | SMILES | IC50 (NK-1 receptor; [2]) | IC50 (NK-1 receptor) | further results
14 | COc1cc(C(=O)N(C)CC(CCN2CCC(C(N)=O)(c3ccccc3)CC2)(c2ccc(Cl)c(Cl)c2)N(C)C(=O)Oc2ccccc2)cc(OC)c1OC (racemic) [Compound No. 16, (3-(4-Carbamoyl-4-phenyl-piperidine-1-yl)-1-(3,4-dichloro-phenyl)-1-{[methyl-(3,4,5-trimethoxy-benzoyl)-amino]-methyl}-propyl)-methyl-carbamic acid phenyl ester hydrochloride] | 3.5 nM | – | –
15 | COc1cc(COCC(CCCN2CCC(C(N)=O)(c3ccccc3)CC2)(c2ccc(Cl)c(Cl)c2)N(C)C(=O)Nc2ccccc2)cc(OC)c1OC (racemic) [Compound No. 15, 1-[4-(3,4-Dichloro-phenyl)-4-(1-methyl-3-phenyl-ureido)-5-(3,4,5-trimethoxy-benzyloxy)-pentyl]-4-phenyl-piperidine-4-carboxylic acid amide] | 0.9 nM | – | –
